Measurements reported in ChEMBL document CHEMBL3585260, “2-Aminoalkyl nicotinamide derivatives as pure inverse agonists of the ghrelin receptor” (Bioorg Med Chem Lett, 2015).
Calls of active or inactive are those of the source. The calls are words filed in the database; no cut-off is given here.

Assays:
[1] = molecular target: Neurotensin receptor type 2 (Homo sapiens) (UniProt O95665); assay: Inverse agonist activity at NTSR2 (unknown origin) expressed in HEK293 cells assessed as suppression of constitutive receptor activity by NFAT-RE-luciferase reporter gene assay; assay type: cell-based
[2] = molecular target: Growth hormone secretagogue receptor type 1 (Rattus norvegicus) (UniProt O08725); assay: Inverse agonist activity at rat ghrelin receptor expressed in HEK293 cells assessed as blockade of constitutive receptor activity b by NFAT-RE-luciferase reporter gene assay; assay type: cell-based
[3] = molecular target: T1, Growth hormone secretagogue receptor type 1 (Rattus norvegicus, UniProt O08725); assay: Inverse agonist activity at rat ghrelin receptor expressed in HEK293 cells by NFAT-RE-luciferase reporter gene assay; assay type: cell-based
[4] = molecular target: T2, Growth hormone secretagogue receptor type 1 (Homo sapiens, UniProt Q92847); assay: Binding affinity to ghrelin receptor (unknown origin)
[5] = Toxicity against HEK293 cells assessed as cell viability at 2 uM by alamar blue staining method; assay type: cell-based; conditions: human, read-out: Activity
[6] = Toxicity against HEK293 cells assessed as cell viability at 50 uM by alamar blue staining method; assay type: cell-based; conditions: human, read-out: Activity
[7] = molecular target: D(1A) dopamine receptor (Homo sapiens) (UniProt P21728); assay: Inhibition of radioligand binding at dopamine D1 receptor (unknown origin) at 10 uM
Mus musculus [8] = assay: Inhibition of ghrelin-induced food intake in mouse model of high fat diet-induced obesity at 10 mg/kg, sc dosed twice daily for 14 days; assay type: functional, organism-based
[9] = molecular target: Neuropeptide Y receptor type 1 (Homo sapiens) (UniProt P25929); assay: Inhibition of radioligand binding at human neuropeptide Y1 receptor at 10 uM
[10] = molecular target: Adrenergic receptor alpha-2 (Homo sapiens) (UniProt P08913+P18825+P18089); assay: Inhibition of radioligand binding at alpha-2 adrenergic receptor (unknown origin) at 10 uM
Mus musculus [11] = assay: Inhibition of ghrelin-induced food intake in mouse model of high fat diet-induced obesity at 30 mg/kg, sc dosed twice daily for 14 days; assay type: functional, organism-based
Liver microsome = assay: Drug metabolism in human liver microsomes; assay type: ADME
Mus musculus [12] = assay: Toxicity in mouse model of high fat diet-induced obesity assessed as induction of behavioral effect at 10 and 30 mg/kg, sc; assay type: organism-based; conditions: in vivo
[13] = Total clearance in mouse at 10 mg/kg administered as single dose; assay type: ADME, organism-based; conditions: in vivo
Rattus norvegicus [14] = assay: Toxicity in rat assessed as induction of behavioral effect at 10 to 30 mg/kg, ip; assay type: organism-based; conditions: in vivo
[15] = Ratio of drug level in brain to plasma in mouse at 10 mg/kg, ip administered as single dose after 1 hr; assay type: ADME, organism-based; conditions: brain and plasma, read-out: BPR
[16] = molecular target: 5-hydroxytryptamine receptor 2C (Homo sapiens) (UniProt P28335); assay: Inhibition of radioligand binding at human 5HT2C receptor at 10 uM
[17] = molecular target: Cholecystokinin receptor type A (Homo sapiens) (UniProt P32238); assay: Inhibition of radioligand binding at human CCKA at 10 uM
[18] = molecular target: Sodium-dependent serotonin transporter (Homo sapiens) (UniProt P31645); assay: Inhibition of radioligand binding at human SERT at 10 uM
[19] = Bioavailability in mouse at 10 mg/kg, sc administered as single dose; assay type: ADME, organism-based; conditions: in vivo
Rattus norvegicus [20] = assay: Inhibition of ghrelin-induced gastric emptying in rat assessed as suppression of gastric motility at 10 mg/kg, sc pre-treated 15 mins before ghrelin challenge; assay type: functional, organism-based; conditions: Stomach
Salmonella typhimurium = assay: Mutagenicity in Salmonella typhimurium by Ames test; assay type: toxicity, organism-based; conditions: salmonella enterica subsp. enterica serovar typhimurium
Mus musculus [21] = assay: Toxicity in mouse model of high fat diet-induced obesity assessed as induction of sedation at 10 and 30 mg/kg, sc; assay type: organism-based; conditions: in vivo
[22] = Protein binding in human plasma; assay type: ADME, cell-free; conditions: read-out: PPB
CYP3A4 = CYP3A4 (Homo sapiens, UniProt P08684); assay: Inhibition of CYP3A4 (unknown origin) at 10 uM; assay type: ADME
[23] = molecular target: Motilin receptor (Homo sapiens) (UniProt O43193); assay: Inhibition of radioligand binding at human MTLR1 at 10 uM
[24] = molecular target: Sodium-dependent noradrenaline transporter (Homo sapiens) (UniProt P23975); assay: Inhibition of radioligand binding at human NET at 10 uM
Rattus norvegicus [25] = assay: Toxicity in rat assessed as induction of sedation at 10 to 30 mg/kg, ip; assay type: organism-based; conditions: in vivo
[26] = molecular target: Cannabinoid receptor 1 (Homo sapiens) (UniProt P21554); assay: Inhibition of radioligand binding at human CB1 receptor at 10 uM
hERG (KCNH2) = hERG (KCNH2) (Homo sapiens, UniProt Q12809); assay: Inhibition of human ERG at 10 uM
[27] = molecular target: Melanocortin receptor 4 (Homo sapiens) (UniProt P32245); assay: Inhibition of radioligand binding at human melanocortin MC4 receptor at 10 uM
[28] = Inhibition of ghrelin-induced growth hormone release in rat primary pituitary cells; assay type: functional, cell-based; conditions: Pituitary gland cell
[29] = molecular target: T2, Growth hormone secretagogue receptor type 1; assay: Antagonist activity against ghrelin receptor (unknown origin) expressed in CHO cells assessed as inhibition of ghrelin-induced calcium response; assay type: functional, cell-based
Rattus norvegicus [30] = assay: Inhibition of ghrelin-induced gastric emptying in rat assessed as suppression of gastric content at 10 mg/kg, sc pre-treated 15 mins before ghrelin challenge; assay type: functional, organism-based; conditions: Stomach
Rattus norvegicus [31] = assay: Inhibition of ghrelin-induced growth hormone release in rat at 3 mg/kg, iv pre-treated 5 mins before ghrelin challenge; assay type: functional, organism-based
Rattus norvegicus [32] = assay: Inhibition of ghrelin-induced food intake in rat at 15 to 30 mg/kg, ip after 30 mins; assay type: functional, organism-based
[33] = Bioavailability in mouse at 10 mg/kg, ip administered as single dose; assay type: ADME, organism-based; conditions: in vivo
[34] = molecular target: D(2) dopamine receptor (Homo sapiens) (UniProt P14416); assay: Inhibition of radioligand binding at dopamine D2 receptor (unknown origin) at 10 uM
[35] = Oral bioavailability in mouse at 10 mg/kg, administered as single dose; assay type: ADME, organism-based; conditions: in vivo
HEK293 [36] = assay: Toxicity against HEK293 cells assessed as cell viability at >10 uM by alamar blue staining method; assay type: cell-based; conditions: human
HEK293 [37] = assay: Toxicity against HEK293 cells assessed as cell viability up to 10 uM by alamar blue staining method; assay type: cell-based; conditions: human
[38] = molecular target: T1, Growth hormone secretagogue receptor type 1; assay: Inverse agonist activity at rat ghrelin receptor by inositol phosphate turnover assay; assay type: functional
[39] = molecular target: T1, Growth hormone secretagogue receptor type 1; assay: Inverse agonist activity at rat ghrelin receptor expressed in HEK293 cells by inositol phosphate turnover assay; assay type: functional, cell-based

T2 sequence (Q92847 whole entry): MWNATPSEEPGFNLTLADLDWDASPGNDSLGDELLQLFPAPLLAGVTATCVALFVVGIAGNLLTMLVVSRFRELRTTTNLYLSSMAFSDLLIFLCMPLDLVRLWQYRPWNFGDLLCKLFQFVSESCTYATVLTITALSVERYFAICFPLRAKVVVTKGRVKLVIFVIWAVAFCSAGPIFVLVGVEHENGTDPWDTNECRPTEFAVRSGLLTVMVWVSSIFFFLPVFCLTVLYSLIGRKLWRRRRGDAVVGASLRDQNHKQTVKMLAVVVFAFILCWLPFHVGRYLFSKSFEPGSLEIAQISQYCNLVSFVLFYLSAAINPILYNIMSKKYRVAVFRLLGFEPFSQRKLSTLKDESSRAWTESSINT
T1 sequence (O08725 whole entry): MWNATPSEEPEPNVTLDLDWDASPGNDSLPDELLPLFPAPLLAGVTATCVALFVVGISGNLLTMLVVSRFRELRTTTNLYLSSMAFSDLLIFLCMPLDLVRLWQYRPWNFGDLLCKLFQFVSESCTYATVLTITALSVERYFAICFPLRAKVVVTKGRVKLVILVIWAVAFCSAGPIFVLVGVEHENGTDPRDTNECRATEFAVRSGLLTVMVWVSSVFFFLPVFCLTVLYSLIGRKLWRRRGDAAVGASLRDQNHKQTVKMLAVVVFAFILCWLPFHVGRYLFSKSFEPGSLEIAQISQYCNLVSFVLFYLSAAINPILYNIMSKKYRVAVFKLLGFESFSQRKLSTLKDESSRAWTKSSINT
Sequence of Growth hormone secretagogue receptor type 1 (Rattus norvegicus) (O08725 whole entry): as above
Sequence of Neurotensin receptor type 2 (Homo sapiens) (O95665 whole entry): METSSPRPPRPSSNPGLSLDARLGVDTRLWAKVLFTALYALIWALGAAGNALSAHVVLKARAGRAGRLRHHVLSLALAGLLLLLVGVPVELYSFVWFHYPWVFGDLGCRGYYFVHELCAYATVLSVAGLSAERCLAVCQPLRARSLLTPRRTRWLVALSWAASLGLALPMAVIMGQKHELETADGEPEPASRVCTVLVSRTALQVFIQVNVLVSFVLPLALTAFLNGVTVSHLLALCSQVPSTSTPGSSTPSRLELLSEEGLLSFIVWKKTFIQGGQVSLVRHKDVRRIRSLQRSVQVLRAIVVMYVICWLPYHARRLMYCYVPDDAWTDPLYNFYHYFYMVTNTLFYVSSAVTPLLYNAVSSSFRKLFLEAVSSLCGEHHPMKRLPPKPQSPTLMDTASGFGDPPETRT
Sequence of Sodium-dependent noradrenaline transporter (Homo sapiens) (P23975 whole entry): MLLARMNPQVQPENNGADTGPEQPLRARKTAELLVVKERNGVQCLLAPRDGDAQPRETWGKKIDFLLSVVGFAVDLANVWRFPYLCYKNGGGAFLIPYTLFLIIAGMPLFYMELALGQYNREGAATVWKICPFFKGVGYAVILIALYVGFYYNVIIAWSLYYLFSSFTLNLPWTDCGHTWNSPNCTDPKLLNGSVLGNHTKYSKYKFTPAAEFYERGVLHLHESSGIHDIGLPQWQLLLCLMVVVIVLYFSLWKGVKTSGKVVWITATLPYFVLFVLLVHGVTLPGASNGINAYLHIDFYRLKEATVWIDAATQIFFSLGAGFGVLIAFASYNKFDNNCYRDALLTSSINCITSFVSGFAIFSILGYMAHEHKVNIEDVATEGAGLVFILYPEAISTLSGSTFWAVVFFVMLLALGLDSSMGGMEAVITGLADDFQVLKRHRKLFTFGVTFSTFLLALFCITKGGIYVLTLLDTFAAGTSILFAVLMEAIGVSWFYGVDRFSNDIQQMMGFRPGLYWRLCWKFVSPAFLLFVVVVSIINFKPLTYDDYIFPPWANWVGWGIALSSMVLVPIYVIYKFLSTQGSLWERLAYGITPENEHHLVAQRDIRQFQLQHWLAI
Sequence of 5-hydroxytryptamine receptor 2C (Homo sapiens) (P28335 whole entry): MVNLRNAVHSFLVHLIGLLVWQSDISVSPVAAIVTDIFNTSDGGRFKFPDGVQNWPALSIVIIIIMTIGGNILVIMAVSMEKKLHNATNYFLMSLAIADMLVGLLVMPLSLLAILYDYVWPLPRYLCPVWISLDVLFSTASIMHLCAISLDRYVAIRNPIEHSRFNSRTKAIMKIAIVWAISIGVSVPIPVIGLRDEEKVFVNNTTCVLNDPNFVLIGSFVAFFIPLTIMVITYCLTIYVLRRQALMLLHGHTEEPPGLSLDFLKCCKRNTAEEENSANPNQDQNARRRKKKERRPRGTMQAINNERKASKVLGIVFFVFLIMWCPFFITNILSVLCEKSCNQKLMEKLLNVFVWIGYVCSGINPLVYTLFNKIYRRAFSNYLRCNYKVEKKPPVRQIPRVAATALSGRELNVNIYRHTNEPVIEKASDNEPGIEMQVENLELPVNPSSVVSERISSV
Sequence of D(2) dopamine receptor (Homo sapiens) (P14416 whole entry): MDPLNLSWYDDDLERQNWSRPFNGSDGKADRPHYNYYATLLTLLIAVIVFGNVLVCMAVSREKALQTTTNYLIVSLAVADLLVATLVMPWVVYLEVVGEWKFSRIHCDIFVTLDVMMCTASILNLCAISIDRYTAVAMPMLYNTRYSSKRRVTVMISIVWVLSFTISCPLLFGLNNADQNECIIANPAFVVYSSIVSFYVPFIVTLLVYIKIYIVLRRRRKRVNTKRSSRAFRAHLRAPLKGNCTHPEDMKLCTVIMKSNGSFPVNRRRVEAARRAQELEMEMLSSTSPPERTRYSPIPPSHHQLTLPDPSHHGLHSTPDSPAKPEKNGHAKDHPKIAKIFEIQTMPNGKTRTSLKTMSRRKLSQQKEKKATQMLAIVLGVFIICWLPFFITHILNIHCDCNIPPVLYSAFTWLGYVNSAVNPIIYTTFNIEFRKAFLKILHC
Sequence of Motilin receptor (Homo sapiens) (O43193 whole entry): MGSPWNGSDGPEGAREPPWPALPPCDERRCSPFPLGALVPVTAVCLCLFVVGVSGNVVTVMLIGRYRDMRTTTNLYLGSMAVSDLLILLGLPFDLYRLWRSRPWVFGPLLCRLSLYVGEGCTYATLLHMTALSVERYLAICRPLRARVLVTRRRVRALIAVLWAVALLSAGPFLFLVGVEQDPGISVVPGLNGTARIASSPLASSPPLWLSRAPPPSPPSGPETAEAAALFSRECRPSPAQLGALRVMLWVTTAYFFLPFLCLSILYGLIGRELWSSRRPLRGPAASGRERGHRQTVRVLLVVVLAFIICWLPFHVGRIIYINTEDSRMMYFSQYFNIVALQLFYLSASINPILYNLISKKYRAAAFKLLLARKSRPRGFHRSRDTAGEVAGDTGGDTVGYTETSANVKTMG
Sequence of Melanocortin receptor 4 (Homo sapiens) (P32245 whole entry): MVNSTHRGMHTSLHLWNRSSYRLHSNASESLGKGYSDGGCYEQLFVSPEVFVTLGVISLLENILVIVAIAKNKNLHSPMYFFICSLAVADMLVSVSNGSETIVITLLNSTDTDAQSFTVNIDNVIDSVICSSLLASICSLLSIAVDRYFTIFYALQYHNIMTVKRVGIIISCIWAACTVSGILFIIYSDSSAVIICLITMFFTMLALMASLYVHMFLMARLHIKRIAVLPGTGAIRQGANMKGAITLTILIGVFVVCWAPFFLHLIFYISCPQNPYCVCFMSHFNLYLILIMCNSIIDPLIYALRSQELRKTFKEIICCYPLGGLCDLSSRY
Sequence of CYP3A4 (P08684 whole entry): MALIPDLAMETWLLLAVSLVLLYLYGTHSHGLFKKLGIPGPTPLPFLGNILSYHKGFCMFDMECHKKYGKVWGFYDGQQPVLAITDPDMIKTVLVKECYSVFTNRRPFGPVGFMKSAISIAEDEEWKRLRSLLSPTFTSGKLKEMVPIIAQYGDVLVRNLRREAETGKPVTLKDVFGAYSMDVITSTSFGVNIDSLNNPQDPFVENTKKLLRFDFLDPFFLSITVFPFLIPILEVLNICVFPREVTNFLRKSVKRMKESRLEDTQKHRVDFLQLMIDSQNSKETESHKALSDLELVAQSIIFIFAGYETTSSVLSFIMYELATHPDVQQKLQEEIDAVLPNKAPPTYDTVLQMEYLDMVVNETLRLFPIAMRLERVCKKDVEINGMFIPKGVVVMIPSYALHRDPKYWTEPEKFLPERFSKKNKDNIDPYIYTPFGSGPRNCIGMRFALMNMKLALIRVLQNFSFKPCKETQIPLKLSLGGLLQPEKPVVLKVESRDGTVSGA
Sequence of Cholecystokinin receptor type A (Homo sapiens) (P32238 whole entry): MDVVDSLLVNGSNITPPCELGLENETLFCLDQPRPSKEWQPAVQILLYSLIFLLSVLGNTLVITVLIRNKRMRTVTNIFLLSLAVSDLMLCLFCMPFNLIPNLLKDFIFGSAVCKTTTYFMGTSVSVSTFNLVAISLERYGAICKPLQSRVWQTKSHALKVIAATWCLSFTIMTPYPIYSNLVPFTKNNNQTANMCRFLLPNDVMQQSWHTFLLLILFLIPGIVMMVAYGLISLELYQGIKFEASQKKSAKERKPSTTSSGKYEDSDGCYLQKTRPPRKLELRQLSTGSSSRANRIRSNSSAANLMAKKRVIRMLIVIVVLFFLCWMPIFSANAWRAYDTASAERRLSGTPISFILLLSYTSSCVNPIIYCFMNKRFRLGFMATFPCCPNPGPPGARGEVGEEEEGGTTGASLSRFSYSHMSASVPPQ
Sequence of Neuropeptide Y receptor type 1 (Homo sapiens) (P25929 whole entry): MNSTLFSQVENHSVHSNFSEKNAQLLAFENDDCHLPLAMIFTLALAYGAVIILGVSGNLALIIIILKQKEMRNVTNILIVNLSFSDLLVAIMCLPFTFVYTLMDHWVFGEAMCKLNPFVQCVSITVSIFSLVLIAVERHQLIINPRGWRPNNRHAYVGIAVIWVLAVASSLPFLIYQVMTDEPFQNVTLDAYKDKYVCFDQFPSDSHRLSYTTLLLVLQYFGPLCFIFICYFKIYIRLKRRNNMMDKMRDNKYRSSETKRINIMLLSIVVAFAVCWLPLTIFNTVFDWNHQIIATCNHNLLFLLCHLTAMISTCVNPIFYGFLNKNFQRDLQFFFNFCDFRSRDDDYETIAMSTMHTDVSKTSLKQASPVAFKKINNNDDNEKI

## CCCn1cc(-c2cnc(NCc3ccc4occc4c3)c(C(=O)NCC3COc4ccccc4O3)c2)cn1 (stereo not drawn)
[1]
  Activity: inactive
[2]
  Efficacy: > 95%
[3]
  IC50: 720 nM
[4]
  IC50: 150 nM

## CCCn1cc(-c2cnc(NCc3ccc4ncsc4c3)c(C(=O)NCC3COc4ccccc4O3)c2)cn1 (stereo not drawn)
[1]
  Activity: inactive
[2]
  Efficacy: > 95%
[3]
  IC50: 900 nM
[4]
  IC50: 260 nM

## CCCn1cc(-c2cnc(NCc3ccc4c(c3)OCO4)c(C(=O)NCC3COc4ccccc4O3)c2)cn1 (stereo not drawn)
[5]
  viability at 2 µM: 85%
[1]
  Activity: inactive
[2]
  Efficacy: > 95%
[3]
  IC50: 170 nM
[6]
  viability at 50 µM: 69%
[4]
  IC50: 36 nM

## CCn1cc(-c2cnc(NCc3ccc4c(c3)OCO4)c(C(=O)NC[C@@H]3COc4ccccc4O3)c2)cn1
[1]
  Activity: inactive
[2]
  Efficacy: > 95%
[3]
  IC50: 5500 nM
[4]
  IC50: 180 nM

## CCn1cc(-c2cnc(NCc3ccc4c(c3)OCO4)c(C(=O)NC[C@H]3COc4ccccc4O3)c2)cn1
[1]
  Activity: inactive
[2]
  Efficacy: > 95%
[3]
  IC50: 110 nM
[4]
  IC50: 24 nM

## O=C(NC[C@H]1COc2ccccc2O1)c1cc(N2CCOCC2)cnc1NCc1ccc2c(c1)OCO2
[1]
  Activity: inactive
[2]
  Efficacy: > 95%
[3]
  IC50: 2000 nM
[4]
  IC50: 47 nM

## C[C@@H]1CN(c2cnc(NCc3ccc4c(c3)OCC4)c(C(=O)NC[C@H]3COc4ccccc4O3)c2)C[C@H](C)O1
[1]
  Activity: inactive
[2]
  Efficacy: > 95%
[3]
  IC50: 350 nM
[4]
  IC50: 7.2 nM

## O=C(NC[C@H]1COc2ccccc2O1)c1cc(N2C[C@H]3CC[C@@H](C2)O3)cnc1NCc1ccc2c(c1)OCO2
[1]
  Activity: inactive
[2]
  Efficacy: > 95%
[3]
  IC50: 560 nM
[4]
  IC50: 5.4 nM

## CC(=O)N1CC=C(c2cnc(NCc3ccc4c(c3)OCO4)c(C(=O)NC[C@H]3COc4ccccc4O3)c2)CC1
[1]
  Activity: inactive
[2]
  Efficacy: > 95%
[3]
  IC50: 2500 nM
[4]
  IC50: 42 nM

## CC(=O)N1[C@@H]2CC[C@H]1C=C(c1cnc(NCc3ccc4c(c3)OCC4)c(C(=O)NC[C@H]3COc4ccccc4O3)c1)C2 (mixture of isomers)
[7]
  inhibition: 5.6%
Mus musculus [8]
  inhibition: Active
[9]
  inhibition: 1%
[10]
  inhibition: 12.6%
Mus musculus [11]
  inhibition: Active
Liver microsome
  Drug metabolism: 302 pmol/min/mg
Mus musculus [12]
  Activity: Non-toxic
[13]
  clearance: 68.2 mL/min/kg
Rattus norvegicus [14]
  Activity: Non-toxic
[15]
  Kp at 1 h: 0.005
[16]
  inhibition: 7.1%
[17]
  inhibition: 0%
[1]
  Activity: inactive
[18]
  inhibition: 0%
[19]
  bioavailability: 99.1%
Rattus norvegicus [20]
  inhibition: Active
Salmonella typhimurium
  Activity: Non-toxic
Mus musculus [21]
  Activity: Non-toxic
[22]
  fraction unbound: 0.01
CYP3A4
  inhibition at 10 µM: 26%
[23]
  inhibition: 18.8%
[24]
  inhibition: 0%
Rattus norvegicus [25]
  Activity: Non-toxic
[26]
  inhibition: 0%
hERG (KCNH2)
  inhibition at 10 µM: 36%
[27]
  inhibition: 2.4%
[28]
  IC50: 13 nM
[29]
  IC50: 31 nM
Rattus norvegicus [30]
  inhibition: Active
[2]
  Efficacy: > 95%
Rattus norvegicus [31]
  inhibition: Active
Rattus norvegicus [32]
  inhibition: Active
[33]
  bioavailability: 83.2%
[34]
  inhibition: 7.1%
[35]
  bioavailability: 0.64%
[3]
  IC50: 47 nM
[4]
  IC50: 0.96 nM

## CC(C)N1[C@@H]2CC[C@H]1C=C(c1cnc(NCc3ccc4c(c3)OCC4)c(C(=O)NC[C@H]3COc4ccccc4O3)c1)C2 (mixture of isomers)
HEK293 [36]
  Activity: Toxic
[1]
  Activity: inactive
[2]
  Efficacy: > 95%
[3]
  IC50: 4.1 nM
[4]
  IC50: 0.23 nM
HEK293 [37]
  Activity: Toxic

## CCCn1cc(-c2cnc(NCc3ccc4sccc4c3)c(C(=O)NCC3COc4ccccc4O3)c2)cn1 (racemic)
[5]
  viability at 2 µM: 101%
[1]
  Activity: inactive
[2]
  Efficacy: > 95%
[3]
  IC50: 400 nM
[6]
  viability at 50 µM: 92%
[4]
  IC50: 84 nM

## CCCn1cc(-c2cnc(NCc3ccc4c(c3)OCC4)c(C(=O)NCC3COc4ccccc4O3)c2)cn1 (racemic)
[1]
  Activity: inactive
[2]
  Efficacy: > 95%
[3]
  IC50: 140 nM
[4]
  IC50: 11 nM

## O=C(NCC1COc2ccccc2O1)c1cc(-c2ccnc(Cl)c2)cnc1NCc1ccc2c(c1)OCC2 (racemic)
[1]
  Activity: inactive
[2]
  Efficacy: > 95%
[3]
  IC50: 390 nM
[4]
  IC50: 6.9 nM

## H-RPKPFQWFWLL-NH2
[38]
  IC50: 5.2 nM
[39]
  IC50: 146 nM
[3]
  IC50: 250 nM
